Laboratory results from patent US20190030053A1, “COMPOSITION FOR INCREASING EXPRESSION OF PGC-1alpha” (BENEBIOSIS CO., LTD., priority 2016, published 2019).
“Also recorded” adds a separate entry of the source.

Columns and labels:
PGC-1α and related genes = experiment: Gene expression by SL treatment in normal mouse models; format: in vivo; conditions: normal C57BL/6 mice, oral 0.1 mg/kg/day, 10 weeks, organs, skeletal muscles, abdominal fat
Experimental: In order to investigate relative gene expression changes by organs compared with before SL (3′-SL & 6′-SL) aministration, 4-week-old C57BL/6 mice were purchased from Dooyeul Biotech (Korea). Water was freely accessible, and a commercially available pellet feed (Dooyeul Biotech, Korea) was given for two weeks. […]
Sialyllactose or deionized water was orally administered daily. […] The dietary intake and body weight change were measured every 5 days. […]
The gene expression changes by administration of the SL (3′-SL & 6′-SL) compositions were quantitatively compared for eight main organs (heart, hippocampus, brain, spinal cord, lung, liver, spleen, and kidney), three skeletal muscles (soleus muscle, quadriceps femoris muscle, and gastrocnemius muscle), and abdominal fat. RNA was extracted by TRIzol agent (Invitrogen). cDNA was synthesized by using RNA, which has been extracted as above and quantified, and a reverse transcription system (Promega, USA). The expression patterns of PGC-1α and related genes were measured by using pre-designed primers and probes (Applied Biosystems; PGC-1α, Mm00447181_m1, GAPDH, and Mm99999915_q1) for the synthesized cDNA and analysis targets (Fndc5, PGC-1α, Erra, UCP1, SOD2, and GPX1). […]

[1] = system: ob mouse (C57BL/6J-ob/ob) models; experiment: Topical fat removal by meso roller administration in ob mouse models; format: in vivo; conditions: 0.1 M SL, meso roller on day 0 and day 4, observed on day 7
Experimental: In addition, in the ob mouse (C57BL/6J-ob/ob) models fed with a high-fat diet without SL treatment, the topical fat removal effect by SL (3′-SL & 6′-SL) administration using a meso roller (0.5 mm, INTO MR, Intomedi Inc.) was investigated. Specifically, the hairs on the dorsal side of the […] were shaved, and 0.1 M SL in the saline buffer was applied to the skin, and was absorbed into the skin by rubbing with the meso roller. The control group was tested by the same method except that the buffer was used without SL. […] In FIG. 15, 3′-SL, 6′-SL, and CTL represent the 3′-SL administration group, the 6′-SL administration group, and the control group, respectively. After feeding with a high-fat diet for 10 weeks, SL (3′-SL & 6′-SL) compositions were topically administered on day 0 and day 4 using the meso roller, and then dermoscopy observation was conducted on day 7. The observation results are shown.

[2] = system: mouse aortic smooth muscle cells (MASMs); experiment: Mitochondrial superoxide production (MitoSOX Red) in MASMs of aging stimulation model mice; format: cell-based; conditions: MASMs from aging stimulation model mice; SL added to culture liquid
Experimental: For the measurement of mitochondrial superoxide production, mitochondrial ROS was measured using MitoSOX Red (mitochondrial superoxide fluorescent marker). MASMs were extracted, and incubated with MitoSOX (4 μM) in the dark room at 37° C. for 20 minutes. The MitoSOX fluorescence was quantified by the cell fluorescence intensity read using a fluorescent plate reader (480 nm excitation/580 nm emission) (FIG. 17b).
In FIGS. 17a and 17b, MASMs were extracted from the aging stimulation model mouse control group, and the SL (3′-SL & 6′-SL) compositions were added to the culture liquid to conduct comparison.
FIGS. 17a and 17b show the measurement results of intercellular H2O2 (ROS values) (FIG. 17a) and the measurement results of mitochondrial superoxide production (FIG. 17b).

Row | SMILES | expression levels of analysis targets (Fndc5, PGC-1α, Erra, UCP1) vs control group (PGC-1α and related genes; 0.1 mg/kg/day) | topical fat removal (dermoscopy) vs negative control portion [1] | mitochondrial superoxide production [2] | expression levels of analysis targets (Fndc5, PGC-1α, Erra, UCP1) vs control group (PGC-1α and related genes)
1 | CC(=O)N[C@H]1[C@H]([C@H](O)[C@H](O)CO)O[C@@](O[C@H]2[C@@H](O)[C@@H](CO)O[C@@H](O[C@H]3[C@H](O)[C@@H](O)C(O)O[C@@H]3CO)[C@@H]2O)(C(=O)O)C[C@@H]1O (stereo partly drawn) [3′-SL, α-NeuNAc-(2→3)-β-D-Gal-(1→4)-D-Glc] | higher than the negative control group; also recorded: less effective than the 6′-SL administration groups | relatively low compared with 6′-SL | inhibited the mitochondrial superoxide production | –
2 | CC(=O)N[C@H]1[C@H]([C@H](O)[C@H](O)CO)O[C@@](OC[C@H]2O[C@@H](O[C@H]3[C@H](O)[C@@H](O)[C@H](O)O[C@@H]3CO)[C@H](O)[C@@H](O)[C@H]2O)(C(=O)O)C[C@@H]1O [6′-SL, α-NeuNAc-(2→6)-β-D-Gal-(1→4)-D-Glc] | – | topical fat was removed | inhibited the mitochondrial superoxide production | higher than the negative control group
